From patent US20210045385A1, “PYRIDAZINONE-SUBSTITUTED KETOXIMES AS HERBICIDES” (FMC Corporation, priority 2018, published 2021)

Assays:
Type in all cases: in vivo
[1] = system: foxtail, giant (giant foxtail, Setaria faberii); experiment: Test A preemergence, visual plant response rating; settings: for Foxtail, Giant plant response rating: 125 g ai/ha, preemergence, 0 to 100 scale, 0 no effect, 100 complete control; for Foxtail, Giant plant response rating (0 to 100 scale): 500 g ai/ha Preemergence, approx. 10 days
Procedure, shortened: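 Ratings use a 0–100 visual scale (100 = complete control) against untreated controls, scored about 10 days after greenhouse treatment. Test chemicals were formulated in surfactant-containing non-phytotoxic solvent and applied either as soil spray after planting (preemergence) or onto one- to two-leaf, 2–10 cm plants (postemergence).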

kochia (Kochia scoparia) [2] = experiment: Test A preemergence, visual plant response rating; settings: for Kochia plant response rating: 125 g ai/ha, preemergence, 0 to 100 scale, 0 no effect, 100 complete control; for Kochia plant response rating (0 to 100 scale): 500 g ai/ha Preemergence, approx. 10 days
Procedure, shortened: (§1)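 Compared with untreated controls, treated plants received a visual injury score on a 0–100 scale around 10 days after application. The compound, in a non-phytotoxic solvent with surfactant, was given as a preemergence soil spray or postemergence at the one- to two-leaf stage.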

[3] = system: barnyardgrass (Echinochloa crus-galli); experiment: Test A preemergence, visual plant response rating; settings: for Barnyardgrass plant response rating: 125 g ai/ha, preemergence, 0 to 100 scale, 0 no effect, 100 complete control; for Barnyardgrass plant response rating (0 to 100 scale): 500 g ai/ha Preemergence, approx. 10 days
Procedure, shortened: as §1

[4] = system: pigweed (Amaranthus retroflexus); experiment: Test A preemergence, visual plant response rating; settings: for Pigweed plant response rating: 125 g ai/ha, preemergence, 0 to 100 scale, 0 no effect, 100 complete control; for Pigweed plant response rating (0 to 100 scale): 500 g ai/ha Preemergence, approx. 10 days
Procedure, shortened: as §1

[5] = system: Italian ryegrass (Lolium multiflorum); experiment: Test A preemergence, visual plant response rating; settings: for Ryegrass, Italian plant response rating: 125 g ai/ha, preemergence, 0 to 100 scale, 0 no effect, 100 complete control; for Ryegrass, Italian plant response rating (0 to 100 scale): 500 g ai/ha Preemergence, approx. 10 days
Procedure, shortened: as §1

[6] = system: ragweed (common ragweed, Ambrosia elatior); experiment: Test A preemergence, visual plant response rating; settings: for Ragweed plant response rating (0 to 100 scale): 500 g ai/ha Preemergence, approx. 10 days
Procedure, shortened: as §1

[7] = system: foxtail, giant (giant foxtail, Setaria faberii); experiment: Test A postemergence, visual plant response rating; settings: for Foxtail, Giant plant response rating (0 to 100 scale): 500 g ai/ha, postemergence, 0 is no effect, 100 is complete control; for Foxtail, Giant plant response rating: Postemergence, 125 g ai/ha, 0 to 100 scale (0 no effect, 100 complete control)
Procedure, shortened: as §1

kochia (Kochia scoparia) [8] = experiment: Test A postemergence, visual plant response rating; settings: for Kochia plant response rating (0 to 100 scale): 500 g ai/ha, postemergence, 0 is no effect, 100 is complete control; for Kochia plant response rating: Postemergence, 125 g ai/ha, 0 to 100 scale (0 no effect, 100 complete control)
Procedure, shortened: as §1

[9] = system: galium (catchweed bedstraw, Galium aparine); experiment: Test A postemergence, visual plant response rating; settings: for Galium plant response rating (0 to 100 scale): 500 g ai/ha, postemergence, 0 is no effect, 100 is complete control; for Galium plant response rating: Postemergence, 125 g ai/ha, 0 to 100 scale (0 no effect, 100 complete control)
Procedure, shortened: as §1

[10] = system: barnyardgrass (Echinochloa crus-galli); experiment: Test A postemergence, visual plant response rating; settings: for Barnyardgrass plant response rating (0 to 100 scale): 500 g ai/ha, postemergence, 0 is no effect, 100 is complete control; for Barnyardgrass plant response rating: Postemergence, 125 g ai/ha, 0 to 100 scale (0 no effect, 100 complete control)
Procedure, shortened: as §1

[11] = system: blackgrass (Alopecurus myosuroides); experiment: Test A postemergence, visual plant response rating; settings: for Blackgrass plant response rating (0 to 100 scale): 500 g ai/ha, postemergence, 0 is no effect, 100 is complete control; for Blackgrass plant response rating: Postemergence, 125 g ai/ha, 0 to 100 scale (0 no effect, 100 complete control)
Procedure, shortened: as §1

[12] = system: wheat (Triticum aestivum); experiment: Test A postemergence, visual plant response rating; settings: for Wheat plant response rating (0 to 100 scale): 500 g ai/ha, postemergence, 0 is no effect, 100 is complete control; for Wheat plant response rating: Postemergence, 125 g ai/ha, 0 to 100 scale (0 no effect, 100 complete control)
Procedure, shortened: as §1

corn (Zea mays) = experiment: Test A postemergence, visual plant response rating; settings: for Corn plant response rating (0 to 100 scale): 500 g ai/ha, postemergence, 0 is no effect, 100 is complete control; for Corn plant response rating: Postemergence, 125 g ai/ha, 0 to 100 scale (0 no effect, 100 complete control)
Procedure, shortened: as §1

[13] = system: pigweed (Amaranthus retroflexus); experiment: Test A postemergence, visual plant response rating; settings: for Pigweed plant response rating (0 to 100 scale): 500 g ai/ha, postemergence, 0 is no effect, 100 is complete control; for Pigweed plant response rating: Postemergence, 125 g ai/ha, 0 to 100 scale (0 no effect, 100 complete control)
Procedure, shortened: as §1

[14] = system: Italian ryegrass (Lolium multiflorum); experiment: Test A postemergence, visual plant response rating; settings: for Ryegrass, Italian plant response rating (0 to 100 scale): 500 g ai/ha, postemergence, 0 is no effect, 100 is complete control; for Ryegrass, Italian plant response rating: Postemergence, 125 g ai/ha, 0 to 100 scale (0 no effect, 100 complete control)
Procedure, shortened: as §1

[15] = system: ragweed (common ragweed, Ambrosia elatior); experiment: Test A postemergence, visual plant response rating; settings: for Ragweed plant response rating (0 to 100 scale): 500 g ai/ha, postemergence, 0 is no effect, 100 is complete control; for Ragweed plant response rating: Postemergence, 125 g ai/ha, 0 to 100 scale (0 no effect, 100 complete control)
Procedure, shortened: as §1

[16] = system: ducksalad (Heteranhera limosa); experiment: Test B flooded paddy test, visual plant response rating; settings: 250 g ai/ha, Flood, applied to paddy water, 2-leaf stage, evaluated after 13 to 15 days
Procedure, shortened: (§2)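 At the two-leaf stage, seedlings received compound applied to paddy water flooded 3 cm above soil, a level sustained until assessment. Greenhouse incubation lasted 13 to 15 days before visual comparison with control plants.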

[17] = system: barnyardgrass (Echinochloa crus-galli); experiment: as above; settings: 250 g ai/ha, Flood, applied to paddy water, 2-leaf stage, evaluated after 13 to 15 days
Procedure, shortened: as §2

[18] = system: sedge, umbrella (small-flower umbrella sedge, Cyperus difformis); experiment: as above; settings: 250 g ai/ha, Flood, applied to paddy water, 2-leaf stage, evaluated after 13 to 15 days
Procedure, shortened: as §2

rice (Oryza sativa) = experiment: as above; settings: 250 g ai/ha, Flood, applied to paddy water, 2-leaf stage, evaluated after 13 to 15 days
Procedure, shortened: as §2

Row | Structure (SMILES) | Foxtail, Giant plant response rating [1] | Foxtail, Giant plant response rating (0 to 100 scale) [1] | Kochia plant response rating (kochia (Kochia scoparia) [2]) | Kochia plant response rating (0 to 100 scale) (kochia (Kochia scoparia) [2]) | Barnyardgrass plant response rating [3] | Barnyardgrass plant response rating (0 to 100 scale) [3] | Pigweed plant response rating [4] | Pigweed plant response rating (0 to 100 scale) [4] | Ryegrass, Italian plant response rating [5] | Ryegrass, Italian plant response rating (0 to 100 scale) [5] | Ragweed plant response rating (0 to 100 scale) [6] | Foxtail, Giant plant response rating (0 to 100 scale) [7] | Foxtail, Giant plant response rating [7] | Kochia plant response rating (0 to 100 scale) (kochia (Kochia scoparia) [8]) | Kochia plant response rating (kochia (Kochia scoparia) [8]) | Galium plant response rating (0 to 100 scale) [9] | Galium plant response rating [9] | Barnyardgrass plant response rating (0 to 100 scale) [10] | Barnyardgrass plant response rating [10] | Blackgrass plant response rating (0 to 100 scale) [11] | other results
1 | CON=C(c1cccc(C(F)(F)F)c1Cl)c1c(O)c(C)nn(C)c1=O [Compound 103] | 0 | 20 | 0 | 0 | 0 | 40 | 0 | 50 | 30 | 70 | 50 | 30 | 0 | 20 | 0 | 70 | 40 | 30 | 20 | 40 | Blackgrass plant response rating [11]: 20; Wheat plant response rating (0 to 100 scale) [12]: 0; Wheat plant response rating [12]: 0; Corn plant response rating (0 to 100 scale) (corn (Zea mays)): 0; Corn plant response rating (corn (Zea mays)): 0; Pigweed plant response rating (0 to 100 scale) [13]: 30; Pigweed plant response rating [13]: 10; Ryegrass, Italian plant response rating (0 to 100 scale) [14]: 50; Ryegrass, Italian plant response rating [14]: 0; Ragweed plant response rating (0 to 100 scale) [15]: 20; Ragweed plant response rating [15]: 10; Plant response rating, Ducksalad (0 to 100 scale, 0 is no effect, 100 is complete control) [16]: 0; Plant response rating, Barnyardgrass (0 to 100 scale, 0 is no effect, 100 is complete control) [17]: 0; Plant response rating, Sedge, Umbrella (0 to 100 scale, 0 is no effect, 100 is complete control) [18]: 0; Plant response rating, Rice (0 to 100 scale, 0 is no effect, 100 is complete control) (rice (Oryza sativa)): 0
2 | CON=C(c1ccccc1C1CC1)c1c(O)c(C)nn(C)c1=O [Compound 104] | 80 | 100 | 20 | 70 | 60 | 80 | 70 | 70 | 90 | 100 | 80 | 80 | 70 | 80 | 70 | 100 | 90 | 80 | 40 | 90 | Ragweed plant response rating ([6]; 125 g ai/ha, preemergence, 0 to 100 scale, 0 no effect, 100 complete control): 50; Blackgrass plant response rating [11]: 80; Wheat plant response rating (0 to 100 scale) [12]: 80; Wheat plant response rating [12]: 40; Corn plant response rating (0 to 100 scale) (corn (Zea mays)): 30; Corn plant response rating (corn (Zea mays)): 30; Pigweed plant response rating (0 to 100 scale) [13]: 90; Pigweed plant response rating [13]: 70; Ryegrass, Italian plant response rating (0 to 100 scale) [14]: 100; Ryegrass, Italian plant response rating [14]: 90; Ragweed plant response rating (0 to 100 scale) [15]: 90; Ragweed plant response rating [15]: 80; Plant response rating, Ducksalad (0 to 100 scale, 0 is no effect, 100 is complete control) [16]: 0; Plant response rating, Barnyardgrass (0 to 100 scale, 0 is no effect, 100 is complete control) [17]: 0; Plant response rating, Sedge, Umbrella (0 to 100 scale, 0 is no effect, 100 is complete control) [18]: 0; Plant response rating, Rice (0 to 100 scale, 0 is no effect, 100 is complete control) (rice (Oryza sativa)): 0
